Values of other authors as cited in patent US9817001B2, “Methods for determining LDL cholesterol treatment” (Boston Heart Diagnostics Corporation, priority 2008, dated 2017).

Test system: HDL particle profile (α-1 HDL, preβ-1 HDL)
Conditions: for effect on preβ-1 HDL level: by decreasing CETP activity; for effect on apoA-I kinetics: in vivo

| Structure (SMILES) | statin effectiveness to change the HDL particle profile beneficially (statin therapy, decreasing pre-β1 and increasing α-1) | effect on preβ-1 HDL level | effect on apoA-I kinetics |
| --- | --- | --- | --- |
| CC[C@H](C)C(=O)O[C@H]1C[C@@H](C)C=C2C=C[C@H](C)[C@H](CC[C@@H]3C[C@@H](O)CC(=O)O3)[C@H]21 [lovastatin] | almost no change | – | – |
| CC(C)c1c(C(=O)Nc2ccccc2)c(-c2ccccc2)c(-c2ccc(F)cc2)n1CC[C@@H](O)C[C@@H](O)CC(=O)O [atorvastatin] | – | significantly decrease | little or no effect |
| CC(C)c1nc(N(C)S(C)(=O)=O)nc(-c2ccc(F)cc2)c1/C=C/[C@@H](O)C[C@@H](O)CC(=O)O [Rosuvastatin, rosuvastatin] | – | significantly decrease | little or no effect |
